Results as given in patent US12643871B2, “Aryl formamide compound containing chiral sulfur oxide or salt thereof, preparation method, herbicidal composition and use thereof” (Qingdao Kingagroot Chemical Compound Co., Ltd., priority 2019, dated 2026).

Tests used:
Experiment in all cases: Weeding effect in post-emergence stage
Assay type in all cases: in vivo
Settings in all cases: 250 g/ha; 2 leaf stage; 15 days after application; fresh weight control rate
[1] = tested on: Abutilon theophrasti
Method in brief: (§1)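 Two-leaf-stage pot plants, spray-tower application at 500/250/125/60/30/15 g/ha with methyl oleate EC synergist; fresh weight control level (0–5) read at 15 days post-treatment, three replicates averaged.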

[2] = tested on: Amaranthus retroflexus
Method in brief: as §1

[3] = tested on: Digitaria sanguinalis
Method in brief: as §1

[4] = tested on: Echinochloa crusgali
Method in brief: as §1

SMILES | weeding effect in post-emergence stage, activity level (growth control rate), Abutilon theophrasti [1] | weeding effect in post-emergence stage, activity level (growth control rate), Amaranthus retroflexus [2] | weeding effect in post-emergence stage, activity level (growth control rate), Digitaria sanguinalis [3] | weeding effect in post-emergence stage, activity level (growth control rate), Echinochloa crusgali [4]
Cc1c(C(=O)Nc2nnnn2C)ccc(S(C)(=O)=O)c1[S@+]([O-])CC(F)(F)F [Compound 520] | 5 (Level 5: growth control rate is above 85%) | 5 (Level 5: growth control rate is above 85%) | 5 (Level 5: growth control rate is above 85%) | 5 (Level 5: growth control rate is above 85%)
Cc1c(C(=O)Nc2nnnn2C)ccc(S(C)(=O)=O)c1[S@+]([O-])CC(F)F [Compound 522] | 5 (Level 5: growth control rate is above 85%) | 5 (Level 5: growth control rate is above 85%) | 5 (Level 5: growth control rate is above 85%) | 5 (Level 5: growth control rate is above 85%)
Cc1c(C(=O)Nc2nnnn2C)ccc(S(C)(=O)=O)c1[S@+]([O-])CCF [Compound 519] | 5 (Level 5: growth control rate is above 85%) | 5 (Level 5: growth control rate is above 85%) | 5 (Level 5: growth control rate is above 85%) | 5 (Level 5: growth control rate is above 85%)
CCC[S@@+]([O-])c1c(C(F)(F)F)ccc(C(=O)Nc2nnc(C)o2)c1I [Compound 545] | 5 (Level 5: growth control rate is above 85%) | 5 (Level 5: growth control rate is above 85%) | 5 (Level 5: growth control rate is above 85%) | 5 (Level 5: growth control rate is above 85%)
Cc1nnc(NC(=O)c2ccc(S(C)(=O)=O)c([S@+]([O-])CCS(C)(=O)=O)c2C)o1 [Compound 625] |  | 5 (Level 5: growth control rate is above 85%) | 5 (Level 5: growth control rate is above 85%) | 5 (Level 5: growth control rate is above 85%)
CSCC[S@@+]([O-])c1c(C(F)(F)F)ccc(C(=O)Nc2nnnn2C)c1SC [Compound 595] |  | 5 (Level 5: growth control rate is above 85%) | 5 (Level 5: growth control rate is above 85%) | 5 (Level 5: growth control rate is above 85%)
Cc1nnc(NC(=O)c2ccc(S(C)(=O)=O)c([S@+]([O-])CCC(F)=C(F)F)c2C)o1 [Compound 627] |  | 5 (Level 5: growth control rate is above 85%) | 5 (Level 5: growth control rate is above 85%) | 5 (Level 5: growth control rate is above 85%)
C#CCC[S@@+]([O-])c1c(S(C)(=O)=O)ccc(C(=O)Nc2nnc(C)o2)c1C [Compound 624] |  | 5 (Level 5: growth control rate is above 85%) | 5 (Level 5: growth control rate is above 85%) | 5 (Level 5: growth control rate is above 85%)
Cc1c(C(=O)Nc2nnnn2C)ccc(S(C)(=O)=O)c1[S+]([O-])COC(=O)C(C)(C)C (stereo not shown) [Compound 605] |  | 5 (Level 5: growth control rate is above 85%) | 5 (Level 5: growth control rate is above 85%) | 5 (Level 5: growth control rate is above 85%)
Cc1c(C(=O)Nc2nnnn2C)ccc(S(C)(=O)=O)c1[S+]([O-])CC1CCC1 (stereo not shown) [Compound 626] |  | 5 (Level 5: growth control rate is above 85%) | 5 (Level 5: growth control rate is above 85%) | 5 (Level 5: growth control rate is above 85%)
CC(=O)C[S@@+]([O-])c1c(S(C)(=O)=O)ccc(C(=O)Nc2nnc(C)o2)c1C [Compound 611] |  | 5 (Level 5: growth control rate is above 85%) | 5 (Level 5: growth control rate is above 85%) | 5 (Level 5: growth control rate is above 85%)
Cc1nnc(NC(=O)c2ccc(S(C)(=O)=O)c([S@+]([O-])CCCO)c2C)o1 [Compound 628] |  | 5 (Level 5: growth control rate is above 85%) | 5 (Level 5: growth control rate is above 85%) | 5 (Level 5: growth control rate is above 85%)
CCC[S@@+]([O-])c1c(C(F)F)ccc(C(=O)Nc2nnnn2C)c1SC [Compound 867] |  | 5 (Level 5: growth control rate is above 85%) | 5 (Level 5: growth control rate is above 85%) | 5 (Level 5: growth control rate is above 85%)
Cc1nnc(NC(=O)c2ccc(F)c([S@@+](C)[O-])c2F)o1 [Compound 623] |  | 5 (Level 5: growth control rate is above 85%) | 5 (Level 5: growth control rate is above 85%) | 5 (Level 5: growth control rate is above 85%)
Cc1nnc(NC(=O)c2ccc(S(C)(=O)=O)c([S@+]([O-])CC(=O)N(C)C)c2C)o1 [Compound 604] |  | 5 (Level 5: growth control rate is above 85%) | 5 (Level 5: growth control rate is above 85%) | 5 (Level 5: growth control rate is above 85%)
CSC(=O)C[S@@+]([O-])c1c(C(F)(F)F)ccc(C(=O)Nc2nnc(C)o2)c1F [Compound 597] |  | 5 (Level 5: growth control rate is above 85%) | 5 (Level 5: growth control rate is above 85%) | 5 (Level 5: growth control rate is above 85%)
Cc1c(C(=O)Nc2nnnn2C)ccc(S(C)(=O)=O)c1[S@+]([O-])CCC#N [Compound 608] |  | 5 (Level 5: growth control rate is above 85%) | 5 (Level 5: growth control rate is above 85%) | 5 (Level 5: growth control rate is above 85%)
Cc1c(C(=O)Nc2nnnn2C)ccc(S(C)(=O)=O)c1[S@+]([O-])CCO [Compound 607] |  | 5 (Level 5: growth control rate is above 85%) | 5 (Level 5: growth control rate is above 85%) | 5 (Level 5: growth control rate is above 85%)
Cc1c(C(=O)Nc2nnnn2C)ccc(S(C)(=O)=O)c1[S@+]([O-])CCC(C)(C)C [Compound 603] |  | 5 (Level 5: growth control rate is above 85%) | 5 (Level 5: growth control rate is above 85%) | 5 (Level 5: growth control rate is above 85%)
Cc1nnc(NC(=O)c2ccc(S(C)(=O)=O)c([S@+]([O-])CCC#N)c2C)o1 [Compound 610] |  | 5 (Level 5: growth control rate is above 85%) | 5 (Level 5: growth control rate is above 85%) | 5 (Level 5: growth control rate is above 85%)
CCC[S@@+]([O-])c1c(C(F)(F)F)ccc(C(=O)Nc2ncn[nH]2)c1F [Compound 600] |  | 5 (Level 5: growth control rate is above 85%) | 5 (Level 5: growth control rate is above 85%) | 5 (Level 5: growth control rate is above 85%)
Cc1nnc(NC(=O)c2ccc(Cl)c([S@@+](C)[O-])c2Cl)o1 [Compound 621] |  | 5 (Level 5: growth control rate is above 85%) | 5 (Level 5: growth control rate is above 85%) | 5 (Level 5: growth control rate is above 85%)
CCOCCn1nnnc1NC(=O)c1ccc(S(C)(=O)=O)c([S@+]([O-])CC)c1C [Compound 612] |  | 5 (Level 5: growth control rate is above 85%) | 5 (Level 5: growth control rate is above 85%) | 5 (Level 5: growth control rate is above 85%)
